According to US6737383B1, “Herbicidal oxadiazolidines” (priority 1999, dated 2004):

What was measured:
[1] = tested on: soybean; experiment: Test B pre/postemergence soybean; type: in vivo, Glycine max
Method in brief: (§1)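 Test chemicals in a non-phytotoxic solvent mixture with surfactant were sprayed preemergence onto planted seeds and postemergence onto plants 2 to 18 cm tall (1- to 4-leaf stage). After twelve to sixteen days in a greenhouse, injury was visually rated against untreated controls from 0 (no effect) to 10 (complete control).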

[2] = tested on: smallflower flatsedge; experiment: Test B flood test smallflower flatsedge; type: in vivo, Cyperus difformis; settings: Pre-emergence
Method in brief: (§2)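 Plants were grown to the 2-leaf stage before treatment with test chemical, then held in a greenhouse for twelve to sixteen days. Injury was visually rated against untreated controls on a 0–10 scale, where 0 is no effect and 10 is complete control.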

[3] = tested on: bamyardgrass; experiment: Test B flood test barnyardgrass; type: in vivo, Echinochloa crus-galli; settings: Pre-emergence
Method in brief: as §2

[4] = tested on: surinam grass; experiment: Test B pre/postemergence surinam grass; type: in vivo, Brachiaria decumbens
Method in brief: as §1

[5] = tested on: purple nutsedge; experiment: Test B pre/postemergence purple nutsedge; type: in vivo, Cyperus rotundus
Method in brief: as §1

[6] = tested on: velvetleaf; experiment: Test B pre/postemergence velvetleaf; type: in vivo, Abutilon theophrasti
Method in brief: as §1

[7] = tested on: sugar beet; experiment: Test B pre/postemergence sugar beet; type: in vivo, Beta vulgaris
Method in brief: as §1

[8] = tested on: cocklebur; experiment: Test B pre/postemergence cocklebur; type: in vivo, Xanthium strumarium
Method in brief: as §1

[9] = tested on: rice; experiment: Test B flood test rice; type: in vivo, Oryza sativa; settings: Pre-emergence
Method in brief: as §2

[10] = tested on: pigweed; experiment: Test B pre/postemergence pigweed; type: in vivo, Amaranthus retroflexus
Method in brief: as §1

[11] = tested on: corn; experiment: Test B pre/postemergence corn; type: in vivo, Zea mays
Method in brief: as §1

[12] = tested on: crabgrass; experiment: Test B pre/postemergence crabgrass; type: in vivo, Digitaria sanguinalis
Method in brief: as §1

[13] = tested on: wild oat; experiment: Test B pre/postemergence wild oat; type: in vivo, Avena fatua
Method in brief: as §1

[14] = tested on: blackgrass; experiment: Test B pre/postemergence blackgrass; type: in vivo, Alopecurus myosuroides
Method in brief: as §1

[15] = tested on: giant foxtail; experiment: Test B pre/postemergence giant foxtail; type: in vivo, Setaria faberii
Method in brief: as §1

[16] = tested on: bedstraw; experiment: Test B pre/postemergence bedstraw; type: in vivo, Galium aparine
Method in brief: as §1

[17] = Preemergence, Rate 62 g/ha, scale of 0 to 10 where 0 is no effect and 10 is complete control
[18] = Preemergence, Rate 250 g/ha, scale of 0 to 10 where 0 is no effect and 10 is complete control
[19] = Preemergence, Rate 500 g/ha, scale of 0 to 10 where 0 is no effect and 10 is complete control
[20] = Rate 62 g/ha, Postemergence, scale 0 to 10 (0 no effect, 10 complete control)
[21] = Rate 125 g/ha, Postemergence, scale of 0 to 10 where 0 is no effect and 10 is complete control
[22] = Rate 250 g/ha, Postemergence, scale of 0 to 10 where 0 is no effect and 10 is complete control
[23] = Rate 1000 g/ha, scale 0 to 10 (0 no effect, 10 complete control)
[24] = Rate 125 g/ha, flood test species, scale 0 to 10 where 0 is no effect and 10 is complete control
[25] = Rate 250 g/ha, flood-test species, scale 0 to 10, 0 is no effect, 10 is complete control
[26] = Rate 500 g/ha, flood test species, scale 0 to 10 (0 no effect, 10 complete control)
[27] = Rate 500 g/ha, Postemergence, scale 0 to 10, 0 no effect, 10 complete control

## COC(Cn1c(=O)on(C(=O)N(c2ccc(F)cc2)C(C)C)c1=O)OC [Compound 317]
[1]; [17]
  Soybean plant response rating: 0
[1]; Preemergence, Rate 125 g/ha
  Soybean plant response rating (0 to 10 scale): 0
[1]; [18]
  Soybean plant response rating: 0
[1]; [19]
  Soybean plant response rating: 4
[1]; [20]
  Soybean plant response rating: 3
[1]; [21]
  Soybean plant response rating: 4
[1]; [22]
  Plant response rating, Soybean: 6
[2]; [23]
  S. Flatsedge plant response rating: 0
[2]; [24]
  S. Flatsedge plant response rating: 0
[2]; [25]
  S. Flatsedge plant response rating: 0
[2]; [26]
  S. Flatsedge plant response rating: 0
[3]; [23]
  Barnyardgrass plant response rating: 0
[3]; [24]
  Barnyardgrass plant response rating: 0
[3]; [25]
  Barnyardgrass plant response rating: 0
[3]; [26]
  Barnyardgrass plant response rating: 0
[4]; [17]
  B. signalgrass plant response rating: 5
[4]; Preemergence, Rate 125 g/ha
  B. signalgrass plant response rating (0 to 10 scale, 0 is no effect, 10 is complete control): 6
[4]; [18]
  B. signalgrass plant response rating: 7
[4]; [19]
  B. signalgrass plant response rating: 8
[4]; [20]
  B. signalgrass plant response rating: 0
[4]; [21]
  B. signalgrass plant response rating: 1
[4]; [22]
  Plant response rating, B. signalgrass: 7
[4]; [27]
  B. signalgrass plant response rating: 8
[5]; [17]
  Nutsedge plant response rating: 0
[5]; [18]
  Nutsedge plant response rating: 0
[5]; [19]
  Nutsedge plant response rating: 0
[5]; [20]
  Nutsedge plant response rating: 0
[5]; [21]
  Nutsedge plant response rating: 0
[5]; [22]
  Plant response rating, Nutsedge: 0
[6]; [17]
  Velvetleaf plant response rating: 1
[6]; Preemergence, Rate 125 g/ha
  Velvetleaf plant response rating (0 to 10 scale): 6
[6]; [18]
  Velvetleaf plant response rating: 6
[6]; [19]
  Velvetleaf plant response rating: 8
[6]; [20]
  Velvetleaf plant response rating: 0
[6]; [21]
  Velvetleaf plant response rating: 0
[6]; [22]
  Plant response rating, Velvetleaf: 0
[7]; [17]
  Sugarbeets plant response rating: 1
[7]; Preemergence, Rate 125 g/ha
  Sugarbeets plant response rating (0 to 10 scale): 4
[7]; [18]
  Sugarbeets plant response rating: 7
[7]; [19]
  Sugarbeets plant response rating: 8
[7]; [20]
  Sugarbeets plant response rating: 0
[7]; [21]
  Sugarbeets plant response rating: 0
[7]; [22]
  Plant response rating, Sugarbeets: 1
[8]; Preemergence, Rate 125 g/ha
  Cocklebur plant response rating (0 to 10 scale): 0
[8]; [19]
  Cocklebur plant response rating: 0
[8]; [20]
  Cocklebur plant response rating: 0
[8]; [21]
  Cocklebur plant response rating: 0
[8]; [22]
  Plant response rating, Cocklebur: 0
[8]; [27]
  Cocklebur plant response rating: 1
[9]; [23]
  Rice plant response rating: 0
[9]; [24]
  Rice plant response rating: 0
[9]; [25]
  Rice plant response rating: 0
[9]; [26]
  Rice plant response rating: 0
[10]; [17]
  Redroot pigweed plant response rating: 2
[10]; Preemergence, Rate 125 g/ha
  Redroot pigweed plant response rating (0 to 10 scale): 7
[10]; [18]
  Redroot pigweed plant response rating: 7
[10]; [19]
  Redroot pigweed plant response rating: 10
[10]; [20]
  Redroot pigweed plant response rating: 0
[10]; [21]
  Redroot pigweed plant response rating: 0
[10]; [22]
  Plant response rating, Redroot pigweed: 3
[11]; [17]
  Corn plant response rating: 0
[11]; Preemergence, Rate 125 g/ha
  Corn plant response rating (0 to 10 scale): 2
[11]; [19]
  Corn plant response rating: 5
[11]; [20]
  Corn plant response rating: 0
[11]; [21]
  Corn plant response rating: 0
[11]; [22]
  Plant response rating, Corn: 2
[11]; [27]
  Corn plant response rating: 3
[12]; [17]
  Crabgrass plant response rating: 6
[12]; Preemergence, Rate 125 g/ha
  Crabgrass plant response rating (0 to 10 scale): 7
[12]; [18]
  Crabgrass plant response rating: 8
[12]; [19]
  Crabgrass plant response rating: 8
[12]; [20]
  Crabgrass plant response rating: 2
[12]; [21]
  Crabgrass plant response rating: 5
[12]; [22]
  Plant response rating, Crabgrass: 8
[13]; [17]
  Wild oats plant response rating: 5
[13]; Preemergence, Rate 125 g/ha
  Wild oats plant response rating (0 to 10 scale): 8
[13]; [18]
  Wild oats plant response rating: 8
[13]; [19]
  Wild oats plant response rating: 10
[13]; [20]
  Wild oats plant response rating: 0
[13]; [21]
  Wild oats plant response rating: 0
[13]; [22]
  Plant response rating, Wild oats: 0
[14]; [17]
  Blackgrass plant response rating: 3
[14]; Preemergence, Rate 125 g/ha
  Blackgrass plant response rating (0 to 10 scale): 8
[14]; [18]
  Blackgrass plant response rating: 8
[14]; [19]
  Blackgrass plant response rating: 10
[14]; [20]
  Blackgrass plant response rating: 8
[14]; [21]
  Blackgrass plant response rating: 8
[14]; [22]
  Plant response rating, Blackgrass: 8
[14]; [27]
  Blackgrass plant response rating: 9
[15]; [17]
  Giant foxtail plant response rating: 9
[15]; Preemergence, Rate 125 g/ha
  Giant foxtail plant response rating (0 to 10 scale): 10
[15]; [18]
  Giant foxtail plant response rating: 10
[15]; [19]
  Giant foxtail plant response rating: 10
[15]; [20]
  Giant foxtail plant response rating: 5
[15]; [21]
  Giant foxtail plant response rating: 5
[15]; [22]
  Plant response rating, Giant foxtail: 8
[16]; [17]
  Bedstraw plant response rating: 0
[16]; [20]
  Bedstraw plant response rating: 2
[16]; [21]
  Bedstraw plant response rating: 6
[16]; [22]
  Plant response rating, Bedstraw: 8
